Where “and” joins values, the source holds several entries; their conditions need not be identical. Identical values can stand only once. Toxic doses and inconclusive results are not listed. The calls were made as follows: active = survival T/C of 150% or more; inactive = T/C below 125% in these data.
Tested on: P388 leukemia ip, CD2F1 mice, survival T/C
Test: NCI In Vivo Anticancer Drug Screen. Data for tumor model P388 Leukemia (intraperitoneal) in CD2F1 (CDF1) mice
Details: endpoint: median survival time, higher = longer survival
Outline: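 Mice carrying the transplanted tumor received test compound or vehicle. Survival was recorded in each group, and the value is the treated-group measurement divided by that of the vehicle-treated control group.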

[1] = dose: 12.5 mg/kg/injection, schedule: Q01DX005 (ip), vehicle: saline
[2] = dose: 25.0 mg/kg/injection, schedule: Q01DX005 (ip), vehicle: saline
[3] = dose: 50.0 mg/kg/injection, schedule: Q01DX005 (ip), vehicle: saline

Measured: T/C

CC[N+]1=C(C2=NCCc3ccccc32)c2ccccc2CC1
inactive: [1] 104 % of control | [2] 98 % of control | dose: 50.0 mg/kg/injection, schedule: Q01DX005 (ip), vehicle: saline with Tween-80 92 % of control | [3] 100 % of control

CCOC(=O)c1c(Cl)c(Cl)c(C(=O)OCC)c(Cl)c1Cl
inactive: dose: 100.0 mg/kg/injection, schedule: Q04DX003 (ip), vehicle: saline sonified 100 % of control | dose: 200.0 mg/kg/injection, schedule: Q04DX003 (ip), vehicle: saline sonified 100 % of control | dose: 400.0 mg/kg/injection, schedule: Q04DX003 (ip), vehicle: saline sonified 100 % of control

CCCCCCCCCCCCS(=O)(=O)CC(Br)C(=O)c1ccco1 (stereo not drawn)
inactive: dose: 100.0 mg/kg/injection, schedule: Q04DX002 (ip), vehicle: saline 100 % of control | dose: 200.0 mg/kg/injection, schedule: Q04DX002 (ip), vehicle: saline 100 % of control | dose: 400.0 mg/kg/injection, schedule: Q04DX002 (ip), vehicle: saline 100 % of control

Cc1ccc(OP(=O)(Oc2ccc(C)cc2)Oc2ccc(C)cc2)cc1.Cc1ccc(OP(=O)(Oc2ccc(C)cc2)Oc2ccc(C)cc2)cc1.Cc1ccc(OP(=O)(Oc2ccc(C)cc2)Oc2ccc(C)cc2)cc1.Cc1ccc(OP(=O)(Oc2ccc(C)cc2)Oc2ccc(C)cc2)cc1.[Mn+2].[O-][Cl+3]([O-])([O-])O
inactive: dose: 10.0 mg/kg/injection, schedule: Q01DX001 (ip), vehicle: Klucel (hydroxypropylcellulose) (HPC) 101 % of control | dose: 20.0 mg/kg/injection, schedule: Q01DX001 (ip), vehicle: Klucel (hydroxypropylcellulose) (HPC) 94 % of control | dose: 40.0 mg/kg/injection, schedule: Q01DX001 (ip), vehicle: Klucel (hydroxypropylcellulose) (HPC) 99 % of control

COc1ccc(Cn2nnc(C(N)=O)c2NC=O)cc1
inactive: dose: 100.0 mg/kg/injection, schedule: Q01DX001 (ip), vehicle: Klucel (hydroxypropylcellulose) (HPC) 95 % of control | dose: 200.0 mg/kg/injection, schedule: Q01DX001 (ip), vehicle: Klucel (hydroxypropylcellulose) (HPC) 100 % of control | dose: 400.0 mg/kg/injection, schedule: Q01DX001 (ip), vehicle: Klucel (hydroxypropylcellulose) (HPC) 100 % of control

Cc1nc(N)n[nH]1
inactive: dose: 50.0 mg/kg/injection, schedule: Q01DX009 (ip), vehicle: saline 102 % of control | dose: 100.0 mg/kg/injection, schedule: Q01DX009 (ip), vehicle: saline 109 % of control | dose: 200.0 mg/kg/injection, schedule: Q01DX009 (ip), vehicle: saline 105 % of control | dose: 400.0 mg/kg/injection, schedule: Q01DX009 (ip), vehicle: saline 96 % of control

CC(C)[CH2][Sn](=[O])[c]1ccccc1
inactive: dose: 0.39 mg/kg/injection, schedule: Q01DX009 (ip), vehicle: saline 88 % of control | dose: 0.79 mg/kg/injection, schedule: Q01DX009 (ip), vehicle: saline 87 % of control | dose: 1.56 mg/kg/injection, schedule: Q01DX009 (ip), vehicle: saline 95 % of control

COC(c1ccccc1)(c1ccccc1)c1ccc2ccc3ccccc3c2c1
inactive: dose: 50.0 mg/kg/injection, schedule: Q01DX005 (ip), vehicle: Klucel (hydroxypropylcellulose) (HPC) 91 % of control | dose: 100.0 mg/kg/injection, schedule: Q01DX005 (ip), vehicle: Klucel (hydroxypropylcellulose) (HPC) 96 % of control | dose: 200.0 mg/kg/injection, schedule: Q01DX005 (ip), vehicle: Klucel (hydroxypropylcellulose) (HPC) 95 % of control

COC(=O)C(CSCc1ccccc1)NC(=O)c1csc(CCNC(=O)c2ccccc2)n1 (stereo not drawn)
inactive: dose: 12.5 mg/kg/injection, schedule: Q01DX009 (ip), vehicle: DMSO 99 % of control | dose: 25.0 mg/kg/injection, schedule: Q01DX009 (ip), vehicle: DMSO 99 % of control | dose: 50.0 mg/kg/injection, schedule: Q01DX009 (ip), vehicle: DMSO 100 % of control | dose: 100.0 mg/kg/injection, schedule: Q01DX009 (ip), vehicle: DMSO 101 % of control | dose: 200.0 mg/kg/injection, schedule: Q01DX009 (ip), vehicle: DMSO 96 % of control

OCC1OC(Sc2ncc[nH]2)C(O)C(O)C1O (stereo not drawn)
inactive: dose: 60.0 mg/kg/injection, schedule: Q01DX005 (ip), vehicle: saline 94 % of control and 97 % of control | dose: 120.0 mg/kg/injection, schedule: Q01DX005 (ip), vehicle: saline 95 % of control and 96 % of control | dose: 240.0 mg/kg/injection, schedule: Q01DX005 (ip), vehicle: saline 97 % of control and 90 % of control

O=[N+]([O-])c1ccc(/C=C\c2ccc(Cl)cc2S(=O)(=O)F)c(Cl)c1
inactive: dose: 100.0 mg/kg/injection, schedule: Q01DX009 (ip), vehicle: saline with Tween-80 95 % of control | dose: 100.0 mg/kg/injection, schedule: Q04DX003 (ip), vehicle: Klucel (hydroxypropylcellulose) (HPC) 117 % of control | dose: 200.0 mg/kg/injection, schedule: Q01DX009 (ip), vehicle: saline with Tween-80 100 % of control | dose: 200.0 mg/kg/injection, schedule: Q04DX003 (ip), vehicle: Klucel (hydroxypropylcellulose) (HPC) 103 % of control | dose: 400.0 mg/kg/injection, schedule: Q01DX009 (ip), vehicle: saline with Tween-80 104 % of control | dose: 400.0 mg/kg/injection, schedule: Q04DX003 (ip), vehicle: Klucel (hydroxypropylcellulose) (HPC) 112 % of control

COC(=O)[CH2][Sn]([CH3])([CH3])[CH2]C(=O)OC
inactive: [1] 114 % of control | [2] 124 % of control | [3] 123 % of control

From PubChem BioAssay AID330 (DTP/NCI, 2004)
